Test results as given in ChEMBL document CHEMBL1201862, “PubChem BioAssay data set” (2004).
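In this assay, cells in 96-well plates receive the compound at five concentrations for 48 hours. Endpoints are linearly interpolated between the surrounding concentrations. GI50 marks 50% less growth.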 Activity calls are given as the source filed them. Rule as the data show it: active = GI50 up to about 1.1 µM and inactive = higher.

Legend:
Assay in all cases: growth of human tumour cells (NCI), 48 h
Malme-3M = system: Malme-3M
SNB-19 = system: SNB-19
OVCAR-8 = system: OVCAR-8
OVCAR-5 = system: OVCAR-5
HOP-62 = system: HOP-62
HCC 2998 = system: HCC 2998
UACC-62 = system: UACC-62
RXF 393 = system: RXF 393
SK-MEL-2 = system: SK-MEL-2
SF-268 = system: SF-268
COLO 205 = system: COLO 205
RPMI-8226 = system: RPMI-8226
CCRF-CEM = system: CCRF-CEM
KM12 = system: KM12
PC-3 = system: PC-3
UACC-257 = system: UACC-257
TK-10 = system: TK-10
ACHN = system: ACHN
BT-549 = system: BT-549

CCN(CCCl)c1cc(CN(C)C)cc(NC(=O)c2cc(C(=O)Nc3cc(CN(C)C)cc(N(CC)CCCl)c3)n(C)n2)c1
GI50 (Malme-3M): 1.49 µM (inactive)
GI50 (SNB-19): 0.0658 µM (active)
GI50 (OVCAR-8): 0.143 µM (active)
GI50 (OVCAR-5): 2.32 µM (inactive)
GI50 (HOP-62): 0.121 µM (active)
GI50 (HCC 2998): 0.755 µM (active)
GI50 (UACC-62): 0.219 µM (active)
GI50 (RXF 393): 0.449 µM (active)
GI50 (SK-MEL-2): 1.55 µM (inactive)
GI50 (SF-268): 0.065 µM (active)
GI50 (COLO 205): 0.721 µM (active)
GI50 (RPMI-8226): 0.24 µM (active)
GI50 (CCRF-CEM): < 0.01 µM (active)
GI50 (KM12): 0.236 µM (active)
GI50 (PC-3): 0.164 µM (active)
GI50 (UACC-257): 1.37 µM (inactive)
GI50 (TK-10): 2.69 µM (inactive)
GI50 (ACHN): 0.0828 µM (active)

COC1/C=C/C(C)C(C(C)C(OC)C(C)CCC(=O)C(C)C(CC(=O)O)OC)OC(=O)/C=C/C=C(\C)CC(OC)CC2=CC(=O)O[C@H](C2)C(C)C(OC)CC(OC)/C=C/C(C)C(OC)C1 (some centres undefined)
GI50 (SNB-19): 0.441 µM (active)
GI50 (OVCAR-8): 1.14 µM (inactive)
GI50 (OVCAR-5): 1.02 µM (active)
GI50 (HOP-62): 0.45 µM (active)
GI50 (HCC 2998): 2.62 µM (inactive)
GI50 (UACC-62): 0.315 µM (active)
GI50 (SK-MEL-2): 0.265 µM (active)
GI50 (SF-268): 0.0548 µM (active)
GI50 (COLO 205): 0.0977 µM (active)
GI50 (RPMI-8226): 0.219 µM (active)
GI50 (CCRF-CEM): 0.191 µM (active)
GI50 (KM12): 0.452 µM (active)
GI50 (PC-3): 0.38 µM (active)
GI50 (UACC-257): 0.449 µM (active)
GI50 (TK-10): 0.433 µM (active)
GI50 (ACHN): 0.562 µM (active)

N#Cc1nc(C2OC(COC(=O)c3ccccc3)C(OC(=O)c3ccccc3)C2OC(=O)c2ccccc2)oc1N (centres undefined)
GI50 (Malme-3M): 84.3 µM (inactive)
GI50 (SNB-19): > 100 µM (inactive)
GI50 (OVCAR-8): 46.1 µM (inactive)
GI50 (OVCAR-5): 87.7 µM (inactive)
GI50 (HOP-62): > 100 µM (inactive)
GI50 (HCC 2998): 35.6 µM (inactive)
GI50 (UACC-62): 38.7 µM (inactive)
GI50 (RXF 393): 14.7 µM (inactive)
GI50 (SK-MEL-2): 27.3 µM (inactive)
GI50 (SF-268): 15 µM (inactive)
GI50 (COLO 205): 61.4 µM (inactive)
GI50 (RPMI-8226): 2.1 µM (inactive)
GI50 (CCRF-CEM): 3.18 µM (inactive)
GI50 (KM12): 18.3 µM (inactive)
GI50 (UACC-257): 20.7 µM (inactive)
GI50 (TK-10): 63.5 µM (inactive)
GI50 (ACHN): 33.7 µM (inactive)

O=[N+]([O-])c1ccc2oc(=N/c3ccccc3)/c(=N\c3ccccc3)[nH]c2c1
GI50 (Malme-3M): 87.1 µM (inactive)
GI50 (SNB-19): 41 µM (inactive)
GI50 (OVCAR-8): 75.3 µM (inactive)
GI50 (OVCAR-5): > 100 µM (inactive)
GI50 (HOP-62): 35 µM (inactive)
GI50 (HCC 2998): 83.6 µM (inactive)
GI50 (UACC-62): 58.7 µM (inactive)
GI50 (RXF 393): 24.9 µM (inactive)
GI50 (SK-MEL-2): 36.7 µM (inactive)
GI50 (SF-268): 54.3 µM (inactive)
GI50 (COLO 205): > 100 µM (inactive)
GI50 (RPMI-8226): > 100 µM (inactive)
GI50 (CCRF-CEM): > 100 µM (inactive)
GI50 (KM12): 37.5 µM (inactive)
GI50 (PC-3): 65.3 µM (inactive)
GI50 (UACC-257): > 100 µM (inactive)
GI50 (TK-10): 26.8 µM (inactive)
GI50 (ACHN): 24.7 µM (inactive)

COc1ccc(C(=O)/C=C/c2ccc(OCCCCCCCCCCOc3ccc(/C=C/C(=O)c4ccc(OC)cc4)cc3)cc2)cc1
GI50 (SNB-19): > 100 µM (inactive)
GI50 (OVCAR-8): > 100 µM (inactive)
GI50 (OVCAR-5): > 100 µM (inactive)
GI50 (HOP-62): > 100 µM (inactive)
GI50 (HCC 2998): > 100 µM (inactive)
GI50 (UACC-62): > 100 µM (inactive)
GI50 (RXF 393): > 100 µM (inactive)
GI50 (SK-MEL-2): > 100 µM (inactive)
GI50 (SF-268): > 100 µM (inactive)
GI50 (COLO 205): > 100 µM (inactive)
GI50 (RPMI-8226): > 100 µM (inactive)
GI50 (CCRF-CEM): > 100 µM (inactive)
GI50 (KM12): > 100 µM (inactive)
GI50 (PC-3): > 100 µM (inactive)
GI50 (UACC-257): > 100 µM (inactive)
GI50 (TK-10): > 100 µM (inactive)
GI50 (ACHN): > 100 µM (inactive)

O=C(CCCCCCCCC(=O)OCC1OC(n2cnc3c(=O)[nH]cnc32)C(O)C1O)OCC1OC(n2cnc3c(=O)[nH]cnc32)C(O)C1O (centres undefined)
GI50 (Malme-3M): > 100 µM (inactive)
GI50 (SNB-19): > 100 µM (inactive)
GI50 (OVCAR-8): > 100 µM (inactive)
GI50 (OVCAR-5): > 100 µM (inactive)
GI50 (HOP-62): > 100 µM (inactive)
GI50 (HCC 2998): > 100 µM (inactive)
GI50 (UACC-62): > 100 µM (inactive)
GI50 (RXF 393): > 100 µM (inactive)
GI50 (SK-MEL-2): > 100 µM (inactive)
GI50 (SF-268): > 100 µM (inactive)
GI50 (COLO 205): > 100 µM (inactive)
GI50 (RPMI-8226): > 100 µM (inactive)
GI50 (CCRF-CEM): > 100 µM (inactive)
GI50 (KM12): > 100 µM (inactive)
GI50 (UACC-257): > 100 µM (inactive)
GI50 (TK-10): > 100 µM (inactive)
GI50 (ACHN): > 100 µM (inactive)

CCOC(=O)c1[nH]c2cc(OC)c(OC)cc2c1CN(C)C
GI50 (Malme-3M): > 100 µM (inactive)
GI50 (SNB-19): > 100 µM (inactive)
GI50 (OVCAR-8): > 100 µM (inactive)
GI50 (OVCAR-5): > 100 µM (inactive)
GI50 (HCC 2998): > 100 µM (inactive)
GI50 (UACC-62): > 100 µM (inactive)
GI50 (RXF 393): > 100 µM (inactive)
GI50 (SK-MEL-2): > 100 µM (inactive)
GI50 (SF-268): > 100 µM (inactive)
GI50 (RPMI-8226): > 100 µM (inactive)
GI50 (CCRF-CEM): > 100 µM (inactive)
GI50 (KM12): > 100 µM (inactive)
GI50 (UACC-257): > 100 µM (inactive)
GI50 (TK-10): > 100 µM (inactive)
GI50 (ACHN): > 100 µM (inactive)

S=C1NCCN1C(=S)NC1CCCCC1
GI50 (Malme-3M): 20.8 µM (inactive)
GI50 (OVCAR-8): 47.6 µM (inactive)
GI50 (OVCAR-5): > 100 µM (inactive)
GI50 (HOP-62): 37.6 µM (inactive)
GI50 (HCC 2998): 20.9 µM (inactive)
GI50 (UACC-62): 43.7 µM (inactive)
GI50 (RXF 393): 4.28 µM (inactive)
GI50 (SK-MEL-2): 34.8 µM (inactive)
GI50 (SF-268): 34.7 µM (inactive)
GI50 (COLO 205): 27 µM (inactive)
GI50 (RPMI-8226): 30 µM (inactive)
GI50 (CCRF-CEM): 45.2 µM (inactive)
GI50 (KM12): 24.4 µM (inactive)
GI50 (UACC-257): 26.2 µM (inactive)
GI50 (TK-10): 27.6 µM (inactive)
GI50 (BT-549): 21.4 µM (inactive)
GI50 (ACHN): 32.7 µM (inactive)

COC(=O)c1c2c(cc3c1CC1(Cc4ccccc4C1=O)C3)CCC2 (centres undefined)
GI50 (Malme-3M): 20.3 µM (inactive)
GI50 (SNB-19): > 100 µM (inactive)
GI50 (OVCAR-8): 44.1 µM (inactive)
GI50 (OVCAR-5): > 100 µM (inactive)
GI50 (HOP-62): 42.8 µM (inactive)
GI50 (HCC 2998): 36.6 µM (inactive)
GI50 (RXF 393): 19.5 µM (inactive)
GI50 (SK-MEL-2): 43.7 µM (inactive)
GI50 (SF-268): 48.8 µM (inactive)
GI50 (COLO 205): 3.52 µM (inactive)
GI50 (RPMI-8226): 18.6 µM (inactive)
GI50 (CCRF-CEM): 28.2 µM (inactive)
GI50 (KM12): 25.5 µM (inactive)
GI50 (PC-3): 55.7 µM (inactive)
GI50 (UACC-257): 43.3 µM (inactive)
GI50 (TK-10): 51.3 µM (inactive)
GI50 (ACHN): 23.9 µM (inactive)

COc1cc(/C=C2/SC(c3ccccc3)N(c3ccccc3Cl)C2=O)cc(OC)c1OC (centres undefined)
GI50 (Malme-3M): 23.4 µM (inactive)
GI50 (SNB-19): 28.2 µM (inactive)
GI50 (OVCAR-8): 35.2 µM (inactive)
GI50 (OVCAR-5): 69.5 µM (inactive)
GI50 (HOP-62): 33.6 µM (inactive)
GI50 (HCC 2998): 88.1 µM (inactive)
GI50 (UACC-62): 37.9 µM (inactive)
GI50 (RXF 393): 20.7 µM (inactive)
GI50 (SK-MEL-2): 33.9 µM (inactive)
GI50 (SF-268): 41.1 µM (inactive)
GI50 (COLO 205): 23.3 µM (inactive)
GI50 (RPMI-8226): 21.7 µM (inactive)
GI50 (CCRF-CEM): 12.2 µM (inactive)
GI50 (KM12): 26.8 µM (inactive)
GI50 (UACC-257): 42.2 µM (inactive)
GI50 (TK-10): 69.5 µM (inactive)
GI50 (BT-549): 28.2 µM (inactive)
GI50 (ACHN): 58.1 µM (inactive)

N#Cc1c(N2CCOCC2)ncn(-c2ccc(Cl)cc2)c1=O
GI50 (SNB-19): > 100 µM (inactive)
GI50 (OVCAR-8): > 100 µM (inactive)
GI50 (OVCAR-5): > 100 µM (inactive)
GI50 (HOP-62): > 100 µM (inactive)
GI50 (HCC 2998): > 100 µM (inactive)
GI50 (UACC-62): > 100 µM (inactive)
GI50 (SK-MEL-2): > 100 µM (inactive)
GI50 (COLO 205): > 100 µM (inactive)
GI50 (RPMI-8226): > 100 µM (inactive)
GI50 (CCRF-CEM): > 100 µM (inactive)
GI50 (KM12): > 100 µM (inactive)
GI50 (PC-3): > 100 µM (inactive)
GI50 (UACC-257): > 100 µM (inactive)
GI50 (BT-549): > 100 µM (inactive)
GI50 (ACHN): > 100 µM (inactive)

CNC(=O)C1(C#N)C(c2ccccc2)C(C#N)(C(=O)NC)C1c1ccccc1 (centres undefined)
GI50 (SNB-19): 27.4 µM (inactive)
GI50 (OVCAR-8): > 100 µM (inactive)
GI50 (OVCAR-5): > 100 µM (inactive)
GI50 (HOP-62): > 100 µM (inactive)
GI50 (HCC 2998): > 100 µM (inactive)
GI50 (SK-MEL-2): > 100 µM (inactive)
GI50 (SF-268): > 100 µM (inactive)
GI50 (COLO 205): > 100 µM (inactive)
GI50 (RPMI-8226): 87.1 µM (inactive)
GI50 (CCRF-CEM): > 100 µM (inactive)
GI50 (KM12): > 100 µM (inactive)
GI50 (PC-3): > 100 µM (inactive)
GI50 (TK-10): > 100 µM (inactive)
GI50 (ACHN): > 100 µM (inactive)
